# Counter-ions that a name gives are not always drawn.
# What was measured:
# recombinant ATGL = target: T1, recombinant ATGL (Mus musculus, UniProt Q8BJ56); assay: TG hydrolase activity of E. coli lysates overexpressing recombinant strep-tagged ATGL and CGI-58, radiolabeled triolein substrate; format: biochemical; settings: inhibition of the activity of recombinant ATGL
# T1 construct: Strep-tag; made in house; host or cells: E. coli (XL-1), vector pASK-IBA5+; crude lysate supernatant, not purified
# T1 sequence (Q8BJ56 1-486): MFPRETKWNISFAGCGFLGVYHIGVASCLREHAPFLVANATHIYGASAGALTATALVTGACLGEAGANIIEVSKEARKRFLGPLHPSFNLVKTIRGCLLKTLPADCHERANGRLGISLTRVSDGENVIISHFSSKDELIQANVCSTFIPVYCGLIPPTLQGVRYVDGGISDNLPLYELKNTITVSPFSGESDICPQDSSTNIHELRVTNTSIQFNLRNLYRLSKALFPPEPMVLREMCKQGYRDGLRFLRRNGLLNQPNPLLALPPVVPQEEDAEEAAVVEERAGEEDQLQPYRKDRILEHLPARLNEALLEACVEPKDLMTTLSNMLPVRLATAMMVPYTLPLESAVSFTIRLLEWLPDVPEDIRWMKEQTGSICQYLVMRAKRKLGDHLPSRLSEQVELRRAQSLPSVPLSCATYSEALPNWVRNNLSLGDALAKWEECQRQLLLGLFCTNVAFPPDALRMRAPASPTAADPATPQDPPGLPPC
# Experimental: • Figure 1. Structure of compounds 1 to 3 (reference) and compound 4 (atglistatin) and effect on ATGL activity. For determination of lipase activity, lysates of E. coli overexpressing recombinant strep-tagged ATGL and CGI-58 were incubated with a substrate containing radiolabeled [9,10-3H(N)]-triolein. Subsequently, FA were extracted and quantified by liquid scintillation counting. Lysates of cells expressing empty vector were set as blank. Inhibitors were solubilized in DMSO and added at the indicated concentrations. DMSO alone was used as negative control. (A) Structure and IC50 values of compounds 1-4. (B) Dose-dependent inhibition of ATGL in the presence of compound 3 and 4. […] (C) Lineweaver-Burk plots for kinetic analysis of ATGL inhibition. Experiments were performed at varying concentrations of substrate (0.05 - 3 mM) in presence and absence of compound 4 (Atglistatin). […] Data are presented as mean +/-S.D. of triplicate determinations. Data for compound 4 are representative for at least three independent experiments. • Figure 2. Selectivity of Atglistatin. Lipase activity of ATGL, HSL, lipoprotein lipase, and pancreatic lipase was determined using triolein as substrate. MGL activity was detected in the presence of rac-(1,3)-monooleoylglycerol as substrate. Inhibitors were solubilized in DMSO and added at the indicated concentrations. DMSO alone was used as negative control. (A) Dose-dependent inhibition of TG hydrolase activity in WAT lysates obtained from wild-type and ATGL-ko mice. (B) Inhibition of TG hydrolase activity in wild-type WAT lysates by Atglistatin (40 µM) and by the HSL inhibitor Hi 76-0079 (20 µM). (C) Effect of Atglistatin on murine MGL (purified from E. coli), and murine HSL (overexpressed in COS-7 lysates) activity. (D) Effect of Atglistatin on purified bovine LPL (Sigma) and pancreatic lipase (from porcine pancreas, Sigma). Data are presented as mean +/- S.D. of triplicate determinations and are representative for at least three independent experiments (p < 0.05 **, p < 0.01; ***, p < 0.001). • Figure 3 Inhibition of lipolysis in 3T3-L1 adipocytes and WAT organ cultures. (A,B) Differentiated 3T3 cells were preincubated with the indicated concentrations of Atglistatin. Thereafter, the medium was replaced by DMEM containing 2% BSA (fatty acid free), 10 µM forskolin, in the presence or absence of inhibitors. The release of FA (A) and glycerol (B) in the media was determined using commercial kits. Basal FA and glycerol release (not shown) was barely detectable under the applied conditions. Data are presented as mean +/- SD and are representative for 2 independent experiments. (C-F) Effect of Atglistatin on WAT basal (C, D) and forskolin-stimulated (E, F) lipolysis. Adipose tissue pieces (∼15 mg, n=5 for each concentration) of wild-type mice were cultured for 8 h in DMEM containing 2 % FA-free BSA and the indicated concentrations of Atglistatin. Subsequently, the medium was replaced by identical fresh medium and samples were collected after incubation for another hour in the presence or in the absence of 10 µM forskolin. Atglistatin was solubilized in DMSO and DMSO alone was used as negative control. Data are presented as mean +/- S.D. (*, p < 0.05 **, p < 0.01; ***, p < 0.001). • Figure 4 Inhibition of lipolysis in vivo. […] At the indicated timepoints blood was taken retroorbitally and plasma parameters were measured using commercial kits. […] 8 h after gavage blood was taken retroorbitally and plasma parameters were measured using commercial kits. […]
# [1] = In vitro toxicity tests (not specified further); format: cell-based
# ATGL = settings: expressed ATGL (Jenkins 2004) or native ATGL in hepatocytes (Chung 2008); cited from earlier work
# [2] = Water solubility of the hydrochloride; format: physicochemical; settings: hydrochloride obtained as colourless oil
# Experimental: (§1) As some compounds are not readily soluble in water, it may be preferable to prepare a more readily soluble form of a compound. A possible way to increase the water solubility of a compound is to generate its hydrochloride. The compound is suspended in dest. H2O and a 25 % HCl-solution is added until the solid is completely dissolved. Next, 1 M Tris-HCl-buffer is added to bring the solution to pH 7.4. This procedure yields usually good results. However, in some cases the compound may not be soluble or may precipitate when the pH of the solution elevated to bring it close to neutral pH. In this case, an alternative procedure is provided. The compound is suspended in diethyl ether and dichloromethane is added until the solid is completely dissolved. Then hydrochloric acid is added and all of the solvents are removed under reduced pressure and dried on high vacuum. The resulting colourless oil is water soluble. This procedure was followed with Atglistatin (compound 4) where NMR confirmed the structure of Atglistatin hydrochloride. The water soluble inhibitor may be injected in mice and its impact on the release of free fatty acids (FFA) and glycerol, measured.
# [3] = Injection of the water soluble inhibitor in mice, release of FFA and glycerol; format: in vivo
# Experimental: as §1
# Atglistatin (compound 4) was administrated orally by gavage in olive oil (200 µl) or by IP injection. For IP administration, the hydrochloride was generated by the addition of 25% HCl resulting in a water soluble compound. […]
Structure (SMILES),IC50 (recombinant ATGL) [µM],toxicity in in vitro tests [1],other results
"CCOC(=O)c1ccn(-c2ccc(OCC)cc2)n1 [Compound 2, Ethyl 1-(4-ethoxyphenyl)-1H-pyrazole-3-carboxylate, reference compound]",40,some limited toxicity,–
"CCOC(=O)c1cccc(-c2ccc(OCC)cc2)c1 [Compound 3, Ethyl 4'-ethoxybiphenyl-3-carboxylate, reference compound]",12,–,–
O=C1O/C(=C/Br)CC[C@@H]1c1cccc2ccccc12 [(R)-Bromoenol lactone],–,–,ATGL inhibitory activity (ATGL): has been demonstrated
CN(C)C(=O)Nc1cccc(-c2ccc(N(C)C)cc2)c1 [Atglistatin hydrochloride],–,–,water solubility [2]: water soluble; release of free fatty acids (FFA) and glycerol after injection [3]: reduction in the release of free fatty acids (FFA) and glycerol
"CCOC(=O)c1nn(-c2ccc(OCC)cc2)cc1O [Compound 1, Ethyl 1-(4-ethoxyphenyl)-4-hydroxy-1H-pyrazole-3-carboxylate]",–,some limited toxicity,–

# — patent publication EP2948433B1, “ATGLISTATIN AS LIPASE INHIBITOR” (Technische Universität Graz, priority 2013, dated 2014)
